Each structure is given as a SMILES string.

The assay has as its system 898857-211-R-J1-PDC complex spheroids, growth % test/control. The assay can be described thus: Anticancer human tumor 898857-211-R-J1-PDC patient-derived melanoma cell line growth inhibition [RAS]. Conditions: for viability, T/C: stronger effect = lower value. An outline of the steps: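 Agents were tested in combination matrices in half-log decrements from a top concentration at or near clinical Cmax (10 microM if undetermined). Targets were multi-cell spheroids of tumour lines plus HUVEC and MSC stromal cells.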

Where [1] appears, read: curve of first compound, second compound 0.0316 µM.
Where [2] appears, read: curve of first compound, second compound 0.1 µM.
Setting [3] is: curve of first compound, second compound 0.316 µM.
[4] abbreviates: curve of first compound, second compound 1 µM.
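Also: spheroids exposed to compound for seven days before readout.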
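For viability, T/C in this document: 100% = DMSO vehicle control wells.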

For the compound `CCc1c2c(nc3ccc(O)cc13)-c1cc3c(c(=O)n1C2)COC(=O)[C@]3(O)CC` + C=CC(=O)N1CCN(c2nc(OCC3CCCN3C)nc3c(F)c(-c4nc(N)cc(C)c4C(F)(F)F)c(Cl)cc23)C(C)C1, the IC50 (curve of first compound, second compound 0.00316 µM) is 4.67 nM; the half-inhibitory concentration (IC50) (curve of first compound, second compound 0.01 µM) was 4.95 nM; the concentration for half-maximal inhibition (IC50) under setting [1] stood at 5.08 nM; the concentration for half-maximal inhibition (IC50) under setting [2] worked out at 4.95 nM; the IC50 under setting [3] was determined as 5.43 nM; the concentration for half-maximal inhibition (IC50) under setting [4] is 5.56 nM. Moreover, the viability, T/C (second compound 0.00316 µM, first compound 0.000949 µM) was 95.2%; the viability, T/C (second compound 0.00316 µM, first compound 0.003 µM) was 64.1%; the viability, T/C (second compound 0.00316 µM, first compound 0.00949 µM) is 27.9%; the viability, T/C (second compound 0.00316 µM, first compound 0.03 µM) is 8.98%; the viability, T/C (second compound 0.00316 µM, first compound 0.0949 µM) is 7.24%; the viability, T/C (second compound 0.00316 µM, first compound 0.3 µM) is 8.79%. Further, the viability, T/C was 89.6% (second compound 0.01 µM, first compound 0.000949 µM); 67.4% (second compound 0.01 µM, first compound 0.003 µM); 27.5% (second compound 0.01 µM, first compound 0.00949 µM); 10.1% (second compound 0.01 µM, first compound 0.03 µM); 7.97% (second compound 0.01 µM, first compound 0.0949 µM); 8.39% (second compound 0.01 µM, first compound 0.3 µM). The viability, T/C is, setting by setting: (second compound 0.0316 µM, first compound 0.000949 µM) 87.3%; (second compound 0.0316 µM, first compound 0.003 µM) 69.2%; (second compound 0.0316 µM, first compound 0.00949 µM) 27.4%; (second compound 0.0316 µM, first compound 0.03 µM) 8.88%; (second compound 0.0316 µM, first compound 0.0949 µM) 8.21%; (second compound 0.0316 µM, first compound 0.3 µM) 8.99%. In addition, the viability, T/C reads like this: (second compound 0.1 µM, first compound 0.000949 µM) 93%; (second compound 0.1 µM, first compound 0.003 µM) 68.7%; (second compound 0.1 µM, first compound 0.00949 µM) 26%; (second compound 0.1 µM, first compound 0.03 µM) 8.12%; (second compound 0.1 µM, first compound 0.0949 µM) 7.6%; (second compound 0.1 µM, first compound 0.3 µM) 8.98%. Also, the viability, T/C (second compound 0.316 µM, first compound 0.000949 µM) is 98.4%; the viability, T/C (second compound 0.316 µM, first compound 0.003 µM) is 73.3%; the viability, T/C (second compound 0.316 µM, first compound 0.00949 µM) was 28.4%; the viability, T/C (second compound 0.316 µM, first compound 0.03 µM) was 9.68%; the viability, T/C (second compound 0.316 µM, first compound 0.0949 µM) is 9.81%; the viability, T/C (second compound 0.316 µM, first compound 0.3 µM) was 8.65%. The viability, T/C is 98% (second compound 1 µM, first compound 0.000949 µM); 75.5% (second compound 1 µM, first compound 0.003 µM); 27.8% (second compound 1 µM, first compound 0.00949 µM); 11.4% (second compound 1 µM, first compound 0.03 µM); 8.78% (second compound 1 µM, first compound 0.0949 µM); 8.26% (second compound 1 µM, first compound 0.3 µM).

For the compound `CCn1c(-c2cc(N3CCN(C)CC3)cnc2C(C)OC)c2c3cc(ccc31)-c1csc(n1)CC(NC(=O)C1CC1C)C(=O)N1CCCC(N1)C(=O)OCC(C)(C)C2` (stereo unspecified), the viability, T/C is 111% [middle of 8 runs] (compound 0.000949 µM); 109% [middle of 8 runs] (compound 0.003 µM); 102% [middle of 8 runs] (compound 0.00949 µM); 105% [middle of 8 runs] (compound 0.03 µM); 96.2% [middle of 8 runs] (compound 0.0949 µM); 100% [middle of 8 runs] (compound 0.3 µM). The concentration for half-maximal inhibition (IC50) (compound alone, run of 08/26/2024) is above 300 nM.

For the compound `CC(=O)OC12COC1CC(O)C1(C)C(=O)C(O)C3=C(C)C(OC(=O)C(O)C(NC(=O)OC(C)(C)C)c4ccccc4)CC(O)(C(OC(=O)c4ccccc4)C21)C3(C)C` (stereo unspecified) + C#Cc1c(F)ccc2cc(O)cc(-c3ncc4c(N5CC6CCC(C5)N6)nc(OCC56CCCN5CC(F)C6)nc4c3F)c12, the IC50 was below 31.6 nM under setting [1]; below 31.6 nM under setting [2]; below 31.6 nM under setting [3]; below 31.6 nM under setting [4]; below 31.6 nM (curve of first compound, second compound 3.16 µM); below 31.6 nM (curve of first compound, second compound 10 µM). Besides, the viability, T/C is 12% (second compound 0.0316 µM, first compound 0.0316 µM); 12.8% (second compound 0.0316 µM, first compound 0.1 µM); 12.1% (second compound 0.0316 µM, first compound 0.316 µM); 16% (second compound 0.0316 µM, first compound 1 µM); 26.6% (second compound 0.0316 µM, first compound 3.16 µM); 27.4% (second compound 0.0316 µM, first compound 10 µM). Moreover, the viability, T/C runs as follows: (second compound 0.1 µM, first compound 0.0316 µM) 13%; (second compound 0.1 µM, first compound 0.1 µM) 12.1%; (second compound 0.1 µM, first compound 0.316 µM) 14.1%; (second compound 0.1 µM, first compound 1 µM) 17.1%; (second compound 0.1 µM, first compound 3.16 µM) 25.5%; (second compound 0.1 µM, first compound 10 µM) 21.1%. Besides, the viability, T/C is 16.4% (second compound 0.316 µM, first compound 0.0316 µM); 15.8% (second compound 0.316 µM, first compound 0.1 µM); 12.1% (second compound 0.316 µM, first compound 0.316 µM); 17.7% (second compound 0.316 µM, first compound 1 µM); 25.2% (second compound 0.316 µM, first compound 3.16 µM); 21.3% (second compound 0.316 µM, first compound 10 µM). Further, the viability, T/C runs as follows: (second compound 1 µM, first compound 0.0316 µM) 14.2%; (second compound 1 µM, first compound 0.1 µM) 12.7%; (second compound 1 µM, first compound 0.316 µM) 12.8%; (second compound 1 µM, first compound 1 µM) 16.5%; (second compound 1 µM, first compound 3.16 µM) 15.7%; (second compound 1 µM, first compound 10 µM) 24.7%. For the same compound, the viability, T/C by setting is: (second compound 3.16 µM, first compound 0.0316 µM) 13.3%; (second compound 3.16 µM, first compound 0.1 µM) 16.7%; (second compound 3.16 µM, first compound 0.316 µM) 16.7%; (second compound 3.16 µM, first compound 1 µM) 20.4%; (second compound 3.16 µM, first compound 3.16 µM) 24.6%; (second compound 3.16 µM, first compound 10 µM) 27.6%. Further, the viability, T/C reads like this: (second compound 10 µM, first compound 0.0316 µM) 7.03%; (second compound 10 µM, first compound 0.1 µM) 9%; (second compound 10 µM, first compound 0.316 µM) 5.98%; (second compound 10 µM, first compound 1 µM) 9.12%; (second compound 10 µM, first compound 3.16 µM) 7.68%; (second compound 10 µM, first compound 10 µM) 7.34%.

For `CC(=O)OC12COC1CC(O)C1(C)C(=O)C(O)C3=C(C)C(OC(=O)C(O)C(NC(=O)OC(C)(C)C)c4ccccc4)CC(O)(C(OC(=O)c4ccccc4)C21)C3(C)C` (stereo unspecified), the viability, T/C reads like this: (compound 0.0316 µM) 13% [middle of 4 runs]; (compound 0.1 µM) 13% [middle of 4 runs]; (compound 0.316 µM) 13.3% [middle of 4 runs]; (compound 1 µM) 15.8% [middle of 4 runs]; (compound 3.16 µM) 17.8% [middle of 4 runs]; (compound 10 µM) 20.8% [middle of 4 runs]. In addition, the half-inhibitory concentration (IC50) (curve of compound) is below 31.6 nM.

In the case of `C[C@@H](NC(=O)c1ncnc(N)c1Cl)c1ncc(C(=O)Nc2cc(C(F)(F)F)c(Cl)cn2)s1`, the viability, T/C reads like this: (compound 0.1 µM) 122% [middle of 4 runs]; (compound 1 µM) 81.2% [middle of 4 runs]; (compound 10 µM) 36.8% [middle of 4 runs].
